Literature values in patent US20070142460A1, “Compounds, compositions and methods” (priority 2003, published 2007).

System: A549 cells

SMILES | GI50 [nM]
CC(=O)O[C@H]1C(=O)[C@@]2(C)[C@H]([C@H](OC(=O)c3ccccc3)[C@]3(O)C[C@H](OC(=O)[C@H](O)[C@@H](NC(=O)c4ccccc4)c4ccccc4)C(C)=C1C3(C)C)[C@]1(OC(C)=O)CO[C@@H]1C[C@@H]2O [paclitaxel] | 4
O=c1[nH]cc(F)c(=O)[nH]1 [5-fluorouracil] | 1000
NC(=O)NO [hydroxyurea] | 500000
COc1cccc2c1C(=O)c1c(O)c3c(c(O)c1C2=O)C[C@@](O)(C(=O)CO)C[C@@H]3O[C@H]1C[C@H](N)[C@H](O)[C@H](C)O1 [doxorubicin] | 63
